# Paper PMC9289467, “A Novel Multifunctional 5,6-Dimethoxy-Indanone-Chalcone-Carbamate Hybrids Alleviates Cognitive Decline in Alzheimer’s Disease by Dual Inhibition of Acetylcholinesterase and Inflammation” (Frontiers in Aging Neuroscience, 2022)
# Tests used:
# Aβ42 oligomers = target: T1, Aβ42 oligomers (Homo sapiens, UniProt P05067); assay: Aβ42 self-oligomerization dot blot (A11 antibody); assay type: biochemical; details: oligomer-specific antibody A11
# T1 construct: purchased Aladdin A118755
# Method: The formation of Aβ40 or Aβ42 oligomers was monitored by dot blot with oligomer-specific antibody. Briefly, the resulting Aβ film was dissolved in ddH2O to form a 100 μM solution, and then the oligomerization reaction ([Kayed et al., 2003]) was initiated in absence or presence of different concentrations of AP5. An aliquot (2 μL) of each solution was dripped on a nitrocellulose membrane. The membrane was blocked with 5% non-fat milk in TBS for 1 h, incubated with the anti-β amyloid (MOAB-2, NBP2-13075SS, Novus Biologicals, Colorado, United States), anti-amyloid oligomers (A11, NBP1-97930, Novus Biologicals), or anti-amyloid fibrils (OC, NBP1-97930, Novus Biologicals) antibodies overnight at 4°C. The membrane was then incubated using HRP-conjugated secondary antibodies at room temperature for 1 h and then developed with ECL.
# AChE = target: T2, AChE (Mus musculus, UniProt P21836); assay: Brain AChE activity, Amplex Red kit, APP/PS1 mice; assay type: in vivo; details: AP5 40 mg/kg intragastric once daily 5 months, vs APP/PS1 mice
# T2 construct: The brain samples were weighed, homogenized in PBS solution, and centrifuged; from tissue; host or cells: mouse brain (cortex and hippocampus) of APP/PS1 mice dosed with AP5
# Method: APP/PS1 mice of ages 6 months were randomly divided into vehicle (APP/PS1, n = 10) and treatment groups (AP5, n = 10), which were intragastrically administered with AP5 (40 mg/kg) once daily for consecutive 5 months. AP5 was dissolved in distilled water containing 1% sodium carboxymethyl cellulose.
# The brain samples were weighed, homogenized in PBS solution, and centrifuged for 20 min at 25,000 g at 4°C. Amplex® Red acetylcholinesterase/acetylcholine assay kit (A12217, Thermo Fisher Scientific) was used to detect AChE activity and ACh levels in the supernatant in accordance with the manufacturer’s instructions.
# Briefly, for ACh assay, the reactions were started by adding 100 µL of the Amplex Red reagent, HRP, choline oxidase, AChE working solution to each microplate well containing the controls and samples. For AChE assay, detection cocktail solution containing ACh, Amplex Red, choline oxidase and horseradish peroxidase was added toeach well. Assay plates were incubated at room temperature for 30 min and protected from light, followed by detecting fluorescence of resorufin (λex = 544 nm, λem = 590 nm) in a fluorescence microplate reader.
# After deparaffinization and antigen retrieval, the sections were incubated with 0.3% hydrogen peroxide (H2O2) to inhibit endogenous peroxidase activity for 20 min and blocked by goat serum for 30 min at37°C. […]
# [1] = target: T3, AChE-induced Aβ40 fibril formation (Homo sapiens, UniProt P22303); assay: ThT kinetics of AChE-induced Aβ40 fibril formation; assay type: biochemical; details: co-incubation of AP5 and Aβ40 with AChE, 24-h kinetic ThT assay
# T3 construct: purchased Roche (AChE); Invitrogen (Aβ40) R005282 (AChE); 03-136 (Aβ40)
# Method: The effects of AP5 on Aβ fibril formation and pre-formed Aβ fibrils disaggregation were determined using a previously described method of Thioflavin T (ThT, T3516, Sigma Aldrich, St. Louis, MO, United States) fluorometry ([Jan et al., 2010]).
# Supplementary materials and methods … ...1 […]
# Supplementary Figure 1 … .....7
# Supplementary Figure 2 … .....7
# Supplementary materials and methods
# Prepations ofspecimen for pharmacokinetics analysis
# 24 h afterdosing. Brains were collected at0, 0.25, 0.5,2, 4,8 and 24 h after administration.Plasma extractions were performed by adding 90 μL methanol and 2 μL internalstandard letrozole (500 ng/mL) to a30 µL plasma sample. […]
# Then 90 μL methanol and 2 μL letrozolewere added to 30 µl brainhomogenates. The samples were vortexed for 3 min and centrifuged 15 min at25,000 g.The plasma and brainhomogenate were analyzed by UPLC-TSQ/MS (Thermo Fisher Scientific, Waltham, MA, USA). […]
# To study the kinetics of Aβ-AChE fibril complex formation, 10 μM Aβ was mixed with AChE (R005282, Roche, Basel, Switzerland) and different concentrations AP5 and incubated with 10 μM ThT and 50 mM glycine-NaOH (pH 8.5) at 37°C, the ThT fluorescence was continually measured for 24 h at 30 min intervals. […] Fluorescence emission at485 nm was measured on a Spectra MAX GeminiXS fluorometerat an excitation wavelength of 450 nm. […]
# T3 sequence (P22303 32-614): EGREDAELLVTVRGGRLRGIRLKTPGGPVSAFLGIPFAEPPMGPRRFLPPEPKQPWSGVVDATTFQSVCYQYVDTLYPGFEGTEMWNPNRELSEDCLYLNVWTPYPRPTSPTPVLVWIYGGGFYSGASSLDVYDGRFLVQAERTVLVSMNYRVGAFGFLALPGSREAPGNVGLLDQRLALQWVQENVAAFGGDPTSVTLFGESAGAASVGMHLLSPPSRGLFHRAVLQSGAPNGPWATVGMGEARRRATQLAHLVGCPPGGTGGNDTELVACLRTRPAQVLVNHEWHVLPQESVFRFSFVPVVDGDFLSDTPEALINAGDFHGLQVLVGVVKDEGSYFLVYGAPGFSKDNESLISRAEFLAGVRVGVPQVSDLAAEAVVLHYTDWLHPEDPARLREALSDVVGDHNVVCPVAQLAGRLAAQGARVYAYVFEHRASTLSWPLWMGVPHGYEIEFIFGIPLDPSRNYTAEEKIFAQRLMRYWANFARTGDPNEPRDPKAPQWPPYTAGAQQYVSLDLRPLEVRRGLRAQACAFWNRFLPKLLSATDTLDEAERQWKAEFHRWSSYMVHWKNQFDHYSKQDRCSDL
# T1 sequence (P05067 672-713 limits assumed): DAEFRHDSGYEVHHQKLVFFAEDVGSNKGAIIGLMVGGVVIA
# T2 sequence (P21836 32-614): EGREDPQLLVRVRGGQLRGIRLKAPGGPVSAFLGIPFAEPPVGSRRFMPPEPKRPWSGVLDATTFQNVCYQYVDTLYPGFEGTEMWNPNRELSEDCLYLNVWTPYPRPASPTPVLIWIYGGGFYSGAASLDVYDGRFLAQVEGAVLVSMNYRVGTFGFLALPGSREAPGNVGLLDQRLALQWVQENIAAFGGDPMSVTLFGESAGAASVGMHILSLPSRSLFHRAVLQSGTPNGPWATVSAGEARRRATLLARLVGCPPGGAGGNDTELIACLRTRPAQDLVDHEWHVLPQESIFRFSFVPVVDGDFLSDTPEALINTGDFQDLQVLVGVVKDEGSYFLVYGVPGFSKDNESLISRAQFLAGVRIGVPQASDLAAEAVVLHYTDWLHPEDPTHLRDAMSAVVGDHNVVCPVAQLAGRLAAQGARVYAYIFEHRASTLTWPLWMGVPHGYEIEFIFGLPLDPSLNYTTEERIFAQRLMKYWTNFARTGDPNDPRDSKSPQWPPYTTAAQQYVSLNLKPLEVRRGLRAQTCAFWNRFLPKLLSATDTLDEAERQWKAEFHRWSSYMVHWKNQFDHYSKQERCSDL
compound,measurement,setting,value
"CCN(C)C(=O)Oc1cccc(/C=C2\Cc3cc(OC)c(OC)cc3C2=O)c1 [AP5, (E)-3-((5,6-dimethoxy-1-oxo-1,3-dihydro-2H-inden-2-ylidene)-methyl)phenylethyl(methyl)carbamate]",levels of oligomeric Aβ42,Aβ42 oligomers,decreased the levels
same,AChE activity in cortex and hippocampus,AChE,decreased activity of AChE
same,"ThT intensity, AChE-induced Aβ40 fibril formation",[1],substantially lowered the ThT intensity in a dose-dependent manner
